Results on 1 compound are retold here after patent publication US8017585B2, “CXCR4 antagonist and use thereof” (priority 2002, dated 2011).

Each structure is given as a SMILES string. Bridge positions count the residues as written; N and C are the ends. Square brackets hold non-standard residues; d marks the D form. Peptide text beside a SMILES is read from it. 2Nal = N[C@@H](Cc1ccc2ccccc2c1)C(=O)O; Cit = NC(=O)NCCC[C@H](N)C(=O)O

For one experiment, the target named is T1, CXCR4 receptor (Homo sapiens, UniProt P61073).
T1 construct: 50 μL of Jurkat human T-cell leukemia cells (6×10^6 cells/mL) suspended in buffer; endogenous in cells; host or cells: Jurkat human T-cell leukemia cells
The experiment is described as follows: Inhibition of 125I-CXCL12 binding to CXCR4 receptor on Jurkat cells. To be noted: Table 1, 125I-CXCL12, 1 hour at room temperature, compounds as acetate salt, read-out: IC50 (nM), inhibitory activity against CXCL12 binding to CXCR4 receptor.

For experiment [1], the system named is human breast cancer MDA-MB-231 cells. The experiment is described as follows: Inhibition of CXCL12-induced breast cancer cell migration (Transwell). It counts as cell-based. The note with it: 10 nM of the antagonist; 100 nM CXCL12; 15 hours. How it is done: Transwell filter (polycarbonate filter, 8 μm diameter, Costar Company) was treated at 37° C. for 6 hours in 10 μg/mL fibronectin solution and air-dried. 100 nM of CXCL12 (R&D System Company) and 600 μL/well of buffer-A (0.1% bovine serum albumin, DMEM (GibcoBRL) containing 12 mM HEPES) containing the test compound were added to the lower chamber of the Transwell. The test compound and human breast cancer MDA-MB-231 cells (purchased from American Tissue Culture Collection), and 100 μL/well of buffer A containing 2×10^6 cells/mL were added to the upper chamber. […] Cutting off the filter part, adding 0.1 M sodium citrate/50% ethanol solution, and eluting crystal violet absorption at 550 nm was measured. […]
After 15 hours' incubation at 37° C. in 5% CO2 incubator, the upper surface of the filter was wiped and the cell was removed, and then the cell on the lower surface of the filter was fixed and stained with 25% methanol solution containing 0.5% crystal violet (Wako Pure Chemical Ind.), washed by distilled water and air-dried. Cutting off the filter part, adding 0.1 M sodium citrate/50% ethanol solution, and eluting crystal violet absorption at 550 nm was measured. […]

T1 sequence (P61073 whole entry): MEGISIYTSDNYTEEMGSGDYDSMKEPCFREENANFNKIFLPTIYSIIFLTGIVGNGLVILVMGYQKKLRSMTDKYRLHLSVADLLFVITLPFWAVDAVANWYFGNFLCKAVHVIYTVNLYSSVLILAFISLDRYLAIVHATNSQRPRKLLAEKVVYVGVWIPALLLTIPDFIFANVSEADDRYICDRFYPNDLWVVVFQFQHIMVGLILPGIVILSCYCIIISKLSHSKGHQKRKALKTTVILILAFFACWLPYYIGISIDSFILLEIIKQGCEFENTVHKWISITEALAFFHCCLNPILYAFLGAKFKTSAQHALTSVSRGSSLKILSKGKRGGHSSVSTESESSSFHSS
Protocol for CXCR4 receptor: After reaction, suction was made toward the reaction solution by 96 well GF/C filter plate, and each well's radioactivity was measured by top count. As the radioactivity index of 100% when the test compound was not added, and 0% when 100 nM of non-radioisotope-labeled CXCL12 was added, the inhibitory activity of each test compound was measured.

Consider `N=C(N)NCCC[C@H](NC(=O)[C@@H]1CSSC[C@H](NC(=O)[C@H](Cc2ccc3ccccc3c2)NC(=O)[C@H](CCCNC(=N)N)NC(=O)[C@@H](N)CCCNC(=N)N)C(=O)N[C@@H](Cc2ccc(O)cc2)C(=O)N[C@@H](CCCNC(=N)N)C(=O)N[C@@H](CCCCN)C(=O)N[C@H](CCC(=O)O)C(=O)N2CCC[C@H]2C(=O)N[C@@H](Cc2ccc(O)cc2)C(=O)N[C@@H](CCCNC(=N)N)C(=O)N[C@@H](CCCNC(N)=O)C(=O)N1)C(=O)O` [TE14005, H-Arg-Arg-Nal-Cys-Tyr-Arg-Lys-DGlu-Pro-Tyr-Arg-Cit-Cys-Arg-OH] (H-RR[2Nal]CYRK[dE]PYR[Cit]CR-OH; disulfide 4-13), for which, on CXCR4 receptor, the IC50 is 2.2 nM. In addition, the “CXCL12-induced migration of MDA-MB-231 cells” value in experiment [1] is “inhibited”.

What is called IC50 is the concentration that gives 50% inhibition.
